Experimental data as given in patent publication US11970493B2, “Autotaxin inhibitor compounds” (ILDONG PHARMACEUTICAL CO., LTD., priority 2020, dated 2024).
Counter-ions that a name gives are not always drawn.

Legend:
[1] = system: LPA 18:2 level in mouse plasma; test: In vitro LPA assay, reduction of LPA 18:2 level in mouse plasma (LC-MS/MS); format: biochemical; details: 2 hr at 37° C., LPA 18:2 reduction
Description: (§1) Autotaxin (ATX) plays an important role in lysophosphatidic acid (LPA) signaling. An in vitro LPA assay was conducted to determine IC50 values of the test compounds on reduction of LPA 18:2 level in rat or mouse plasma. This example describes the assay data (IC50 value ranges) of exemplary compounds from LPA assays using mouse and rat plasma. Compound GPLG-1690 was assayed as a reference compound.
(§2) The 10 mM DMSO stock solutions of test compounds and 4-fold serial dilutions of the test compounds were prepared at various concentrations. The diluted solutions of the compounds were diluted with 1×PBS (pH 7.5) buffer. 38 μL of rat or mouse plasma samples were mixed with 2 μL of the diluted solutions of the compounds or 2% DMSO solutions in 96-well plate (final 0.1% DMSO). After incubating for 2 hr at 37° C., 120 μL MeOH containing IS (250 ng/mL of LPA 17:0) was added to each well. Mixture was vortexed for 1 min, and then centrifuged for 30 min (4000 rpm, 4° C.). 100 μL supernatant was transferred to a 96-well plate containing 100 μL pure water and the plate was shaken for 10 min. 5 μL supernatant was injected into LC-MS/MS system. No calibration curve will be prepared for LPA 18:2 and all quantifications were performed based on peak area ratios (LPA 18:2/LPA 17:0). For each concentration of compound LPA data were expressed as percentage of reduction (% reduction) using the formula. 100−[((LPA ratio-LPA ratio in control sample after 0 hr incubation)/(LPA ratio in control sample after 2 hr incubation—LPA ratio in control sample after 0 hr incubation))*100]. Data

[2] = system: LPA 18:2 level in rat plasma; test: In vitro LPA assay, reduction of LPA 18:2 level in rat plasma (LC-MS/MS); format: biochemical; details: 2 hr at 37° C., LPA 18:2 reduction
Description: as §1, §2

hATX/ENPP2 = hATX/ENPP2 (Homo sapiens, UniProt Q13822); test: hATX/ENPP2 biochemical assay using 16:0-LPC as substrate (Amplex Red/choline oxidase/HRP fluorescence); details: hENPP2 2.5 nM, LPC (16:0) substrate
Procedure, shortened: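 Enzyme preincubated with compounds 15 min at room temperature in 50 mM Tris-HCl pH 8.0, 140 mM NaCl, 5 mM CaCl2, 0.01% Triton X-100. Reaction started with 80 μM LPC (16:0) stock plus Amplex Red/choline oxidase/HRP mix; fluorescence (ex 530/em 590 nm) read kinetically. IC50 from slope between 60 and 70 min.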

[3] = Mouse PK study (IV and PO); format: in vivo; details: male, C57BL/6, mouse, plasma, male C57BL/6 mice; for AUC(0-inf): IV 2 mg/kg and PO 10 mg/kg study; for bioavailability / Cmax: po, 10 mg/kg; for bioavailability: IV 2 mg/kg and PO 10 mg/kg, read-out: F % (bioavailability); for Cmax: PO group 10 mg/kg
Description: This example describes the pharmacokinetic (PK) data obtained for various compounds of the present disclosure, from studies using mice. The following PK parameters were calculated: • Bioavailability (F %) were calculated using the linear/log trapezoidal rule • Peak plasma concentrations (Cmax (ng/mL)) were taken directly from the plasma concentration vs. time profiles for the PO group • Area under the curve e.g., the area under the concentration curve from time 0 to infinity (AUC0-inf(ng*h/mL)). Experimental Procedures
After intravenous (IV) and oral (PO) administration at 2 mg/kg and 10 mg/kg to male C57BL/6 mice, respectively, the blood samples were collected at the designed sampling time points. All blood samples were transferred into pre-chilled commercial polyethylene microcentrifuge tubes containing K2-EDTA as an anticoagulant. Samples were processed for plasma by centrifugation. Plasma samples was transferred into polypropylene tubes pre-chilled on dry ice and then quickly frozen over dry ice and kept at −70±10° C. until LC-MS/MS analysis. Mice plasma samples were analyzed using qualified bioanalytical methods based on protein precipitation followed by LC-MS/MS analysis. Individual plasma concentration data of each compound was subjected to noncompartmental pharmacokinetic analysis using Phoenix WinNonlin™. Nominal doses were used for pharmacokinetic parameters calculation.

`CCc1nc2ccc(-c3cnc(N4CCN(CC(=O)N5CC[C@@H](O)C5)CC4)nc3)cn2c1N(C)c1nc(-c2ccc(F)cc2)c(C#N)s1` [45 (hydrochloride salt), (R)-2-((2-ethyl-6-(2-(4-(2-(3-hydroxypyrrolidin-1-yl)-2-oxoethyl)piperazin-1-yl)pyrimidin-5-yl)imidazo[1,2-a]pyridin-3-yl)(methyl)amino)-4-(4-fluorophenyl)thiazole-5-carbonitrile] gave an IC50 [1] of 200 to 800 nM and an IC50 [2] of at most 200 nM.
Work on `CCc1nc2ccc(-c3cnc(N4CCN(CC(=O)N5CC[C@H](O)C5)CC4)nc3)cn2c1N(C)c1nc(-c2ccc(F)cc2)c(C#N)s1` [46 (hydrochloride salt), (S)-2-((2-ethyl-6-(2-(4-(2-(3-hydroxypyrrolidin-1-yl)-2-oxoethyl)piperazin-1-yl)pyrimidin-5-yl)imidazo[1,2-a]pyridin-3-yl)(methyl)amino)-4-(4-fluorophenyl)thiazole-5-carbonitrile] yielded an IC50 [1] of 200 to 800 nM and an IC50 [2] of 200 to 800 nM.
Work on `CCc1nc2ccc(-c3cnc(N4CCN(C(=O)C5CN(C)C5)CC4)nc3)cn2c1N(C)c1nc(-c2ccc(F)cc2)c(C#N)s1` [79 (hydrochloride salt)] yielded an IC50 [1] of 200 to 800 nM, an IC50 (hATX/ENPP2) of at most 20 nM and an IC50 [2] of at most 200 nM.
`CCc1nc2ccc(-c3cnc(N4CCN(C(=O)C5(CO)CC5)CC4)nc3)cn2c1N(C)c1nc(-c2ccc(F)cc2)c(C#N)s1` [Compound 10, 2-((2-ethyl-6-(2-(4-(1-(hydroxymethyl)cyclopropane-1-carbonyl)piperazin-1-yl)pyrimidin-5-yl)imidazo[1,2-a]pyridin-3-yl)(methyl)amino)-4-(4-fluorophenyl)thiazole-5-carbonitrile] gave an IC50 [1] of 200 to 800 nM, an IC50 (hATX/ENPP2) of at most 20 nM and an AUC(0-inf) [3] of 26700 ng·h/mL. For the same molecule, the bioavailability [3] was 28%, the Cmax [3] was 4950 ng/mL and the IC50 [2] was at most 200 nM.
In the case of `CCc1nc2ccc(-c3cnc(N4CC(NC5(CO)CC5)C4)nc3)cn2c1N(C)c1nc(-c2ccc(F)cc2)c(C#N)s1` [Compound 30, 2-((2-ethyl-6-(2-(3-((1-(hydroxymethyl)cyclopropyl)amino)azetidin-1-yl)pyrimidin-5-yl)imidazo[1,2-a]pyridin-3-yl)(methyl)amino)-4-(4-fluorophenyl)thiazole-5-carbonitrile], the IC50 [1] is reported as 200 to 800 nM, the IC50 (hATX/ENPP2) is reported as 20 to 200 nM and the AUC(0-inf) [3] is reported as 21700 ng·h/mL. For the same molecule, the bioavailability [3] was 42%, the Cmax [3] was 4310 ng/mL and the IC50 [2] was 200 to 800 nM.
For `CCc1nc2ccc(-c3cnc(N4CCN(C(=O)N5CCCC5)CC4)nc3)cn2c1N(C)c1nc(-c2ccc(F)cc2)c(C#N)s1` [Compound 42, 2-((2-ethyl-6-(2-(4-(pyrrolidine-1-carbonyl)piperazin-1-yl)pyrimidin-5-yl)imidazo[1,2-a]pyridin-3-yl)(methyl)amino)-4-(4-fluorophenyl)thiazole-5-carbonitrile], the IC50 [1] was 200 to 800 nM, the IC50 (hATX/ENPP2) was at most 20 nM and the IC50 [2] was 200 to 800 nM.
With `CCc1nc2ccc(-c3ccc(N4CCN(C(=O)N5CCCC5)CC4)nc3)cn2c1N(C)c1nc(-c2ccc(F)cc2)c(C#N)s1` [Compound 85, 2-((2-ethyl-6-(6-(4-(pyrrolidine-1-carbonyl)piperazin-1-yl)pyridin-3-yl)imidazo[1,2-a]pyridin-3-yl)(methyl)amino)-4-(4-fluorophenyl) thiazole-5-carbonitrile] the IC50 [1] was 200 to 800 nM, the IC50 (hATX/ENPP2) was 20 to 200 nM and the IC50 [2] was at most 200 nM.
For `CCc1nc2ccc(-c3ccc(N4CCN(C(=O)C5CN(C)C5)CC4)nc3)cn2c1N(C)c1nc(-c2ccc(F)cc2)c(C#N)s1` [Compound 86 hydrochloride, 2-((2-ethyl-6-(6-(4-(1-methylazetidine-3-carbonyl)piperazin-1-yl)pyridin-3-yl)imidazo[1,2-a]pyridin-3-yl)(methyl)amino)-4-(4-fluorophenyl)thiazole-5-carbonitrile hydrochloride], the IC50 [1] was over 800 nM and the IC50 [2] was 200 to 800 nM.
With `CCc1nc2ccc(-c3ccc(C(=O)N4CCCC4)nc3)cn2c1N(C)c1nc(-c2ccc(F)cc2)c(C#N)s1` [Compound 87, 2-((2-ethyl-6-(6-(pyrrolidine-1-carbonyl)pyridin-3-yl)imidazo[1,2-a]pyridin-3-yl)(methyl)amino)-4-(4-fluorophenyl)thiazole-5-carbonitrile] the IC50 [1] was 200 to 800 nM, the IC50 (hATX/ENPP2) was 20 to 200 nM and the IC50 [2] was 200 to 800 nM.
`CCc1nc2ccc(-c3ccc(N4CCN(C(=O)C5(CO)CC5)CC4)nc3)cn2c1N(C)c1nc(-c2ccc(F)cc2)c(C#N)s1` [Compound 93, 2-((2-ethyl-6-(6-(4-(1-(hydroxylmethyl)cyclopropane-1-carbonyl)piperazin-1-yl)pyridin-3-yl)imidazo[1,2-a]pyridin-3-yl) (methyl)amino)-4-(4-fluorophenyl)thiazole-5-carbonitrile] showed an IC50 [1] of 200 to 800 nM, an IC50 (hATX/ENPP2) of at most 20 nM and an IC50 [2] of at most 200 nM.
Work on `CCc1nc2ccc(-c3ccc(N4CC(NC5(CO)CC5)C4)nc3)cn2c1N(C)c1nc(-c2ccc(F)cc2)c(C#N)s1` [Compound 109, 2-((2-ethyl-6-(6-(3-((1-(hydroxymethyl)cyclopropyl)amino)azetidin-1-yl)pyridin-3-yl)imidazo[1,2-a]pyridin-3-yl)(methyl)amino)-4-(4-fluorophenyl)thiazole-5-carbonitrile] yielded an IC50 [1] of 200 to 800 nM, an IC50 (hATX/ENPP2) of 20 to 200 nM and an IC50 [2] of at most 200 nM.
`CCc1nc2ccc(-c3ccc(N4CCC(C(=O)N5CCNCC5)CC4)nc3)cn2c1N(C)c1nc(-c2ccc(F)cc2)c(C#N)s1` [Compound 118, 2-((2-ethyl-6-(6-(4-(piperazine-1-carbonyl)piperidin-1-yl)pyridin-3-yl)imidazo[1,2-a]pyridin-3-yl) (methyl)amino)-4-(4-fluorophenyl)thiazole-5-carbonitrile] showed an IC50 [1] of 200 to 800 nM, an IC50 (hATX/ENPP2) of at most 20 nM and an IC50 [2] of at most 200 nM.
In the case of `CCc1nc2ccc(-c3ccc(N4CCC(C(=O)N5CCCCC5)CC4)nc3)cn2c1N(C)c1nc(-c2ccc(F)cc2)c(C#N)s1` [Compound 121, 2-((2-ethyl-6-(6-(4-(piperidine-1-carbonyl)piperidin-1-yl)pyridin-3-yl)imidazo[1,2-a]pyridin-3-yl)(methyl)amino)-4-(4-fluorophenyl)thiazole-5-carbonitrile], the IC50 [1] is reported as 200 to 800 nM, the IC50 (hATX/ENPP2) is reported as 20 to 200 nM and the IC50 [2] is reported as at most 200 nM.
`CCc1nc2ccc(-c3cnc(N4CC(C(=O)N5CCC5)C4)nc3)cn2c1N(C)c1nc(-c2ccc(F)cc2)c(C#N)s1` [Compound 125, 2-((6-(2-(3-(azetidine-1-carbonyl)azetidin-1-yl)pyrimidin-5-yl)-2-ethylimidazo[1,2-a]pyridin-3-yl)(methyl)amino)-4-(4-fluorophenyl)thiazole-5-carbonitrile] showed an IC50 [1] of 200 to 800 nM, an IC50 (hATX/ENPP2) of 20 to 200 nM and an IC50 [2] of at most 200 nM.
`CCc1nc2ccc(-c3cnc(N4CCC(C(=O)N5CCOCC5)CC4)nc3)cn2c1N(C)c1nc(-c2ccc(F)cc2)c(C#N)s1` [Compound 127, 2-((2-ethyl-6-(2-(4-(morpholine-4-carbonyl)piperidin-1-yl)pyrimidin-5-yl)imidazo [1,2-a]pyridin-3-yl)(methyl)amino)-4-(4-fluorophenyl)thiazole-5-carbonitrile] showed an IC50 [1] of 200 to 800 nM, an IC50 (hATX/ENPP2) of at most 20 nM and an IC50 [2] of at most 200 nM.
Molecule `CCc1nc2c(C)cc(N3CCN(CC(=O)N4CC(O)C4)CC3)cn2c1N(C)c1nc(-c2ccc(F)cc2)c(C#N)s1` [GPLG-1690, Ziritaxestat, reference compound] has an IC50 [1] of over 800 nM and an IC50 [2] of over 800 nM.
